Experiments:
Format in all cases: in vivo
Rhipicephalus microplus [1] = assay: Rhipicephalus (Boophilus) microplus injection test (BOOPMI Inj); details: 168 h, injection into adult engorged female ticks, egg deposition after 7 days, read-out: activity (efficacy: 100% means all eggs are infertile); for pest or weed control at 0.004 mg: application rate 4 μg/tick; for pest or weed control at 0.02 mg: application rate 20 μg/tick
How it was run: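 Compound in DMSO, 1 μL, injected abdominally into five adult engorged females, which were then held in a climate chamber. Read-out is egg fertility, scored from deposition at 7 days, with unclear eggs followed to hatching (~42 days); 0% means all eggs fertile, 100% all infertile.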

Rhipicephalus microplus [2] = assay: Rhipicephalus (Boophilus) microplus in-vitro contact test, larval cattle tick, strain Parkhurst (BOOPMI Cont); details: application rate 5 μg/cm^2 (=500 g/ha), tick larvae, after 48 hours, read-out: activity (efficacy: 100% means all larvae are dead or moribund)
How it was run: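 After 48 h at 27° C. and 85% humidity, percent dead or moribund larvae was scored from negative geotactic behaviour. Larvae (20-50, Parkhurst strain, synthetic pyrethroid-resistant) were exposed in tubes coated with compound from acetone, 900 ppm corresponding to 5 μg/cm^2.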

Ctenocephalides felis [3] = assay: Ctenocephalides felis oral test (CTECFE Oral); details: 48 h, read-out: activity (mortality)
How it was run: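 Percent mortality was recorded 2 days after roughly 20 adult Ctenocephalides felis fed on treated cattle blood. The blood was warmed to 37 °C beneath a parafilm membrane, with the fleas kept at room temperature. Compound was dissolved in DMSO and diluted into the blood to test concentration.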

Diabrotica balteata = Diabrotica balteata spray test; details: 168 h, wheat seeds, larvae, after 7 days, read-out: activity (efficacy: 100% means all seedlings have grown up like in the untreated, uninfected control); for pest or weed control at 32 µg/disc, 100 g/ha: application rate 100 g/ha (=32 μg/well); for pest or weed control at 160 µg/disc, 500 g/ha: application rate 500 g/ha (=160 μg/well)
How it was run: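 Efficacy (%) was scored 7 days after spraying, with 100% meaning growth like the untreated, uninfected control and 0% meaning no seedling grew. Spray solutions of compound in acetone/DMF with emulsifier-containing water went onto 1-day-germinated wheat seeds, and each unit was then infested with 10-20 banded cucumber beetle larvae.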

Myzus persicae = Myzus persicae oral test; details: 120 h, read-out: activity (mortality)
How it was run: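 Percent mortality was recorded at day 5, where 0% means no aphids killed. Compound prepared from an acetone concentrate diluted in water and combined with IPL41 medium containing sugar was offered to mixed-stage green peach aphids, which sucked it through a parafilm seal.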

Nezara viridula = Nezara viridula spray test; details: in Hordeum vulgare, 96 h, barley plants, larvae, after 4 days; for mortality at 500 g/ha: application rate 500 g/ha; for mortality at 100 g/ha: application rate 100 g/ha
Method: Nezara viridula—Spray Test Solvent: 78.0 parts by weight of acetone • • 1.5 parts by weight of dimethylformamide Emulsifier: alkylarylpolyglycol ether
To produce a suitable preparation of active compound, 1 part by weight of active compound is mixed with the stated amount of solvent, and the concentrate is diluted with water, containing an emulsifier concentration of 1000 ppm, to the desired concentration. Further test concentrations are prepared by dilution with emulsifier containing water.
Barley plants (Hordeum vulgare) infested with larvae of the southern green stink bug (Nezara viridula) are sprayed with a test solution containing the desired concentration of the active ingredient.
After 4 days mortality in % is determined. 100% means all the stink bugs have been killed; 0% means none of the stink bugs have been killed.

Spodoptera frugiperda = Spodoptera frugiperda spray test; details: in Zea mays, 168 h, read-out: activity (mortality)
How it was run: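 Percent kill of fall armyworm caterpillars was assessed 7 days after infesting dried, treated maize leaf sections. Treatment was a spray of compound in acetone/dimethylformamide, diluted with water containing emulsifier at 1000 ppm.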

[4] = system: Musca domestica strain WHO—N; assay: Musca domestica test (MUSCDO surface treatment & contact assay); details: exposure 30 minutes, 24 hours after contact, read-out: efficacy (mortality); for mortality at 20 mg/m2: surface concentration 20 mg/m^2, glazed tile; for mortality at 4 mg/m2: surface concentration 4 mg/m^2, glazed tile
How it was run: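 Compound dissolved in acetone (2 mg/ml) with 2000 ppm rapeseed oil methyl ester and pipetted onto glazed tile; after acetone evaporation, adult flies exposed to dried surface for 30 minutes. Mortality (%) scored 24 hours after contact.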

Rhipicephalus sanguineus = Rhipicephalus sanguineus in-vitro contact test, adult brown dog ticks (RHIPSA Cont); details: 48 h, after 48 hours, read-out: activity (efficacy: 100% means all ticks are dead or moribund); for pest or weed control at 1 µg/cm2, 100 g/ha: application rate 1 μg/cm^2 (=100 g/ha); for pest or weed control at 5 µg/cm2, 500 g/ha: application rate 5 μg/cm^2 (=500 g/ha)
How it was run: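 Compound in acetone was coated onto the inner walls of glass tubes and dried by rotation before adult brown dog ticks were exposed. Efficacy was scored at 48 h. Ticks unable to climb away from a 45–50 °C heating plate within 5 min counted as dead or moribund.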

[5] = system: Aedes aegypti strain MONHEIM; assay: Aedes aegypti test (AEDSAE surface treatment & contact assay); details: exposure 30 minutes, 24 hours after contact, read-out: efficacy (mortality); for mortality at 4 mg/m2: surface concentration 4 mg/m^2, glazed tile; for mortality at 20 mg/m2: surface concentration 20 mg/m^2, glazed tile
How it was run: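 Compound dissolved in acetone (2 mg/ml) with 2000 ppm rapeseed oil methyl ester, pipetted onto glazed tile and dried. Adult mosquitoes exposed on the surface for 30 min; percent mortality scored 24 h after contact.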

Ctenocephalides felis [6] = assay: Ctenocephalides felis in-vitro contact test, adult cat flea (CTECFE Cont); details: application rate 5 μg/cm^2 (=500 g/ha), adult cat fleas, after 48 hours, read-out: activity (efficacy: 100% means all fleas are dead or moribund)
Method: Ctenocephalides felis—In-Vitro Contact Tests Adult Cat Flea (CTECFE Cont)
9 mg compound is solved in 1 mL acetone and diluted with acetone to the desired concentration. 250 μL of the test solution is filled in 25 mL glass test tubes and homogeneously distributed on the inner walls by rotation and tilting on a shaking device (2 h at 30 rpm). With a compound concentration of 900 ppm, an inner surface of 44.7 cm^2 and a homogeneous distribution, a dose of 5 μg/cm^2 is achieved.
After the solvent has evaporated, each test tube is filled with 5-10 adult cat fleas (Ctenocephalides felis), closed with a perforated lid and incubated in a lying position at room temperature and relative humidity. After 48 hours efficacy is determined. The fleas are patted on the ground of the tubes and are incubated on a heating plate at 45-50° C. for at most 5 minutes. Immotile or uncoordinated moving fleas, which are not able to escape the heat by climbing upwards, are marked as dead or moribund.
An efficacy of 100% means all fleas are dead or moribund; 0% means no fleas are dead or moribund.

COc1nc([C@H](C)NC(=O)c2cc(C(F)(F)F)cc(C(F)(F)F)c2)n(-c2ccc(C#N)cn2)n1 [I-11]
80 to 100%: mortality at 20 mg/m2 [4]
100%: pest or weed control at 0.004 mg (Rhipicephalus microplus [1]) | pest or weed control at 0.02 mg (Rhipicephalus microplus [1]) | pest or weed control at 5 µg/cm2 (Rhipicephalus microplus [2]) | mortality at 100 ppm (Ctenocephalides felis [3]) | pest or weed control at 32 µg/disc, 100 g/ha (Diabrotica balteata) | pest or weed control at 160 µg/disc, 500 g/ha (Diabrotica balteata) | mortality at 4 ppm (Myzus persicae) | mortality at 500 g/ha (Nezara viridula) | mortality at 100 g/ha (Spodoptera frugiperda) | mortality at 500 g/ha (Spodoptera frugiperda)

CC(C)c1nc([C@H](C)NC(=O)c2cc(Cl)nc(C(F)(F)F)c2)n(-c2ccc(C#N)cn2)n1 [I-28]
80 to 100%: mortality at 20 mg/m2 [4]
90%: mortality at 4 ppm (Myzus persicae) | mortality at 100 g/ha (Nezara viridula)
100%: pest or weed control at 0.004 mg (Rhipicephalus microplus [1]) | pest or weed control at 0.02 mg (Rhipicephalus microplus [1]) | pest or weed control at 5 µg/cm2 (Rhipicephalus microplus [2]) | mortality at 100 ppm (Ctenocephalides felis [3]) | pest or weed control at 1 µg/cm2, 100 g/ha (Rhipicephalus sanguineus) | pest or weed control at 5 µg/cm2, 500 g/ha (Rhipicephalus sanguineus) | pest or weed control at 32 µg/disc, 100 g/ha (Diabrotica balteata) | mortality at 100 g/ha (Spodoptera frugiperda)

C[C@H](NC(=O)c1cc(Cl)cc(C(F)F)c1)c1nc(C2CC2)nn1-c1ccc(C#N)cn1 [I-42]
80 to 100%: mortality at 4 mg/m2 [5] | mortality at 20 mg/m2 [5] | mortality at 20 mg/m2 [4]
100%: pest or weed control at 0.004 mg (Rhipicephalus microplus [1]) | pest or weed control at 5 µg/cm2 (Rhipicephalus microplus [2]) | mortality at 100 ppm (Ctenocephalides felis [3]) | pest or weed control at 32 µg/disc, 100 g/ha (Diabrotica balteata) | mortality at 100 g/ha (Nezara viridula) | mortality at 100 g/ha (Spodoptera frugiperda)

C[C@H](NC(=O)c1cc(Cl)cc(SC(F)F)c1)c1nc(C2CC2)nn1-c1ccc(C#N)cn1 [I-46]
80 to 100%: mortality at 20 mg/m2 [4]
100%: pest or weed control at 0.004 mg (Rhipicephalus microplus [1]) | pest or weed control at 5 µg/cm2 (Rhipicephalus microplus [2]) | mortality at 100 ppm (Ctenocephalides felis [3]) | pest or weed control at 32 µg/disc, 100 g/ha (Diabrotica balteata) | mortality at 100 g/ha (Nezara viridula) | mortality at 100 g/ha (Spodoptera frugiperda)

C[C@H](NC(=O)c1cc(OC(F)F)cc(OC(F)F)c1)c1nc(C2CC2)nn1-c1ccc(C#N)cn1 [I-47]
100%: pest or weed control at 0.004 mg (Rhipicephalus microplus [1]) | pest or weed control at 5 µg/cm2 (Rhipicephalus microplus [2]) | pest or weed control at 1 µg/cm2, 100 g/ha (Rhipicephalus sanguineus) | mortality at 100 g/ha (Nezara viridula) | mortality at 100 g/ha (Spodoptera frugiperda)
90%: mortality at 100 ppm (Ctenocephalides felis [3])
80 to 100%: mortality at 4 mg/m2 [5] | mortality at 4 mg/m2 [4] | mortality at 20 mg/m2 [4]
80%: pest or weed control at 5 µg/cm2, 500 g/ha (Rhipicephalus sanguineus) | pest or weed control at 32 µg/disc, 100 g/ha (Diabrotica balteata)

C[C@H](NC(=O)c1cc(Cl)cc(OC(F)(F)F)c1)c1ncnn1-c1ncc(Br)s1 [II-15, N-{(1S)-1-[1-(5-bromo-1,3-thiazol-2-yl)-1H-1,2,4-triazol-5-yl]ethyl}-3-chloro-5-(trifluoromethoxy)benzamide]
80 to 100%: mortality at 20 mg/m2 [4]
90%: mortality at 500 g/ha (Nezara viridula)
100%: pest or weed control at 0.004 mg (Rhipicephalus microplus [1]) | pest or weed control at 0.02 mg (Rhipicephalus microplus [1]) | pest or weed control at 5 µg/cm2 (Rhipicephalus microplus [2]) | mortality at 100 ppm (Ctenocephalides felis [3]) | pest or weed control at 32 µg/disc, 100 g/ha (Diabrotica balteata) | pest or weed control at 160 µg/disc, 500 g/ha (Diabrotica balteata) | mortality at 500 g/ha (Spodoptera frugiperda)
80%: pest or weed control at 5 µg/cm2 (Ctenocephalides felis [6])

C[C@H](NC(=O)c1cc(Cl)cc(OC(F)(F)F)c1)c1ncnn1-c1ncc(I)s1 [II-21]
100%: pest or weed control at 0.004 mg (Rhipicephalus microplus [1]) | pest or weed control at 0.02 mg (Rhipicephalus microplus [1]) | pest or weed control at 5 µg/cm2 (Rhipicephalus microplus [2]) | mortality at 100 ppm (Ctenocephalides felis [3]) | pest or weed control at 32 µg/disc, 100 g/ha (Diabrotica balteata) | pest or weed control at 160 µg/disc, 500 g/ha (Diabrotica balteata) | mortality at 500 g/ha (Spodoptera frugiperda)
90%: mortality at 500 g/ha (Nezara viridula)
80 to 100%: mortality at 4 mg/m2 [4] | mortality at 20 mg/m2 [4]
80%: pest or weed control at 5 µg/cm2 (Ctenocephalides felis [6])

C[C@H](NC(=O)c1cc(I)cc(C(F)(F)F)c1)c1ncnn1-c1ccc(C#N)cn1 [II-46]
100%: pest or weed control at 0.004 mg (Rhipicephalus microplus [1]) | pest or weed control at 0.02 mg (Rhipicephalus microplus [1]) | pest or weed control at 5 µg/cm2 (Rhipicephalus microplus [2]) | mortality at 100 ppm (Ctenocephalides felis [3]) | pest or weed control at 1 µg/cm2, 100 g/ha (Rhipicephalus sanguineus) | pest or weed control at 5 µg/cm2, 500 g/ha (Rhipicephalus sanguineus) | pest or weed control at 32 µg/disc, 100 g/ha (Diabrotica balteata) | pest or weed control at 160 µg/disc, 500 g/ha (Diabrotica balteata) | mortality at 500 g/ha (Nezara viridula) | mortality at 100 g/ha (Spodoptera frugiperda) | mortality at 500 g/ha (Spodoptera frugiperda)
80 to 100%: mortality at 4 mg/m2 [5] | mortality at 20 mg/m2 [5] | mortality at 4 mg/m2 [4] | mortality at 20 mg/m2 [4]

C[C@H](NC(=O)c1cc(Cl)cc(C(F)(F)F)c1)c1ncnn1-c1ccc(C(=O)N(CC(F)(F)F)C2CC2)cn1 [II-70]
90%: mortality at 500 g/ha (Nezara viridula)
100%: pest or weed control at 0.004 mg (Rhipicephalus microplus [1]) | pest or weed control at 0.02 mg (Rhipicephalus microplus [1]) | pest or weed control at 5 µg/cm2 (Rhipicephalus microplus [2]) | pest or weed control at 5 µg/cm2 (Ctenocephalides felis [6]) | pest or weed control at 1 µg/cm2, 100 g/ha (Rhipicephalus sanguineus) | pest or weed control at 5 µg/cm2, 500 g/ha (Rhipicephalus sanguineus) | pest or weed control at 32 µg/disc, 100 g/ha (Diabrotica balteata) | pest or weed control at 160 µg/disc, 500 g/ha (Diabrotica balteata) | mortality at 100 g/ha (Spodoptera frugiperda) | mortality at 500 g/ha (Spodoptera frugiperda)

C[C@H](NC(=O)c1cc(Cl)cc(C(F)(F)F)c1)c1ncnn1-c1ccc(C(=O)N(C)CC#N)cn1 [II-72]
100%: pest or weed control at 0.004 mg (Rhipicephalus microplus [1]) | pest or weed control at 0.02 mg (Rhipicephalus microplus [1]) | pest or weed control at 5 µg/cm2 (Rhipicephalus microplus [2]) | pest or weed control at 5 µg/cm2 (Ctenocephalides felis [6]) | pest or weed control at 1 µg/cm2, 100 g/ha (Rhipicephalus sanguineus) | pest or weed control at 5 µg/cm2, 500 g/ha (Rhipicephalus sanguineus) | pest or weed control at 32 µg/disc, 100 g/ha (Diabrotica balteata) | pest or weed control at 160 µg/disc, 500 g/ha (Diabrotica balteata) | mortality at 4 ppm (Myzus persicae) | mortality at 500 g/ha (Nezara viridula) | mortality at 100 g/ha (Spodoptera frugiperda) | mortality at 500 g/ha (Spodoptera frugiperda)
